Target: T1, dopamine D1 receptor (hD1R) (Homo sapiens, UniProt P21728)
T1 construct: gene DRD1; hD1R stably expressed in FlpIn CHO cells
Assay: cAMP BRET (CAMYEL) assay with dopamine curves, operational model of allostery (functional KB)
Assay type: cell-based
Details: read-out: pKB (KB, μM) ^1 (converted)

T1 sequence (P21728 whole entry): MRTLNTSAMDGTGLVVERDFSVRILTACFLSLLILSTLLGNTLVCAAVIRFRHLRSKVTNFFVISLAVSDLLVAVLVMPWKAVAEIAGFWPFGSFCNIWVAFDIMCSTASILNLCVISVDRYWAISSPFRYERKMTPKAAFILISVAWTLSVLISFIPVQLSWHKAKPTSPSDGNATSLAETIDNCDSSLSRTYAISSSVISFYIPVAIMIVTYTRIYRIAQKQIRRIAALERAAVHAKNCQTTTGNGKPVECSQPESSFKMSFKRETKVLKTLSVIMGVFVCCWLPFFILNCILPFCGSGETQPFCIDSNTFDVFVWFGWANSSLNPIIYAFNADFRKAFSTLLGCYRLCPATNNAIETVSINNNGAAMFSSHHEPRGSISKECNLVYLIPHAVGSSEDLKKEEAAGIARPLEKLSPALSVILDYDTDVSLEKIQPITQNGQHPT

SMILES | Kb [µM]
Cc1ccc(Cl)c(NC(=O)C2(C)CC3c4ccccc4C2c2ccccc23)c1Cl (racemic) [rac-2, rel-(9R,10R,12S)-N-(2,6-Dichloro-3-methylphenyl)-12-methyl-9,10-dihydro-9,10-ethanoanthracene-12-carboxamide] | 1.6
Cc1ccc(Cl)c(NC(=O)[C@]2(C)C[C@H]3c4ccccc4[C@@H]2c2ccccc23)c1Cl [(R)-2, (9R,10S,12S)-N-(2,6-Dichloro-3-methylphenyl)-12-methyl-9,10-dihydro-9,10-ethanoanthracene-12-carboxamide] | 7.6
Cc1ccc(Cl)c(NC(=O)[C@@]2(C)C[C@H]3c4ccccc4[C@@H]2c2ccccc23)c1Cl [(S)-2, (9S,10R,12R)-N-(2,6-Dichloro-3-methylphenyl)-12-methyl-9,10-dihydro-9,10-ethanoanthracene-12-carboxamide] | 1

Reference: paper PMC8270344, “Enantioenriched Positive Allosteric Modulators Display Distinct Pharmacology at the Dopamine D1 Receptor” (Molecules, 2021)
